Assay results as given in patent US5183821A, “Method for treating leukemias using N-(2-dimethylaminoethyl)-3-amino-1,8-naphthalimide for treating leukemias and solid tumors” (priority 1991, dated 1993).
Values after ≈ are worked out from the molar mass of the structure shown. Values joined by “and” are separate entries in the source; they are usually repeats but may differ in a detail not shown here. Equal values may be shown once. “Also recorded” adds a separate entry of the source.

Legend:
[1] = test system: P388 Lymphocytic leukemia; experiment: NCI screen, P388 Lymphocytic leukemia, intraperitoneal (summary); format: in vivo, Mouse; settings: for maximum increased life span: days 2-9 as printed; for Antitumor activity in words: P388
Description: (§1) The activity of the compound has been evaluated by experiments carried out under the auspices of the Division of Cancer Treatment, National Cancer Institute, employing techniques considered to be reliable indicators of chemotherapeutic utility in the treatment of forms of cancer in human patients. The details of the methodology employed in the reported experiments may be determined with reference to established NCI screening methods.
(§2) In the experiments conducted by the NCI, evaluation of activity is made on the basis of appropriate parameters, such as median survival time (MST) or change in average tumor diameter (CATD)in ocular micrometer units (OMU).
The compound was found initially to be active in the P388 leukemia pre-screen, with T/C values (ratio of Test (T) evaluation to control (C) evaluation expressed as a percentage) of 177 and 176. Both values exceed the minimum T/C values for interest by the Decision Network Committe.

[2] = test system: HeLa cells; settings: cytotoxic activity in vitro, monolayer; cited from earlier work
[3] = test system: MX-1 mammary tumor xenograft; experiment: NCI screen, MX-1 breast (mammary) xenograft, renal capsule (summary); format: in vivo, human tumor xenograft in athymic mice; settings: for Antitumor activity in words: MX-1 mammary xenograft
Description: as §1, §2

[4] = test system: B16 Melanocarcinoma; experiment: Experiment 18: B16 i.p., saline with Tween-80, male; format: in vivo, Mouse B6 C3 F1
Description: Tumor: B16 Melanocarcinoma
(§3) Inoculum Site: Intraperitoneal
Tissue: Homogenate (or brei), tumor
(§4) Vehicle: Saline with Tween-80
(§5) Treatment schedule (relative to tumor inoculation day): daily on days 1-9
Day of evaluation (relative to tumor inoculation day): 60
(§6) Parameter: Median survival time (MST) in days
(§7) NCI minimal activity criteria: Percent T/C≥125
(§8) Percent T/C: Ratio of test (T) evaluation to control (C) evaluation expressed as a percentage

[5] = test system: L-1210 Lymphoid leukemia; experiment: Experiment 1: L-1210 i.p., 10^4 cells, acid diluted with saline, male; format: in vivo, Mouse CD2 F1 (CDF1)
Description: (§9) Host: Mouse CD2 F1 (CDF1)
(§10) Tumor: L-1210 Lymphoid leukemia
(§11) Inoculum Site: intraperitoneal
Vehicle: Acid Diluted with saline
as §5
(§12) Day of evaluation (relative to tumor inoculation day): 30
as §6, §7, §8

[6] = test system: L-1210 Lymphoid leukemia; experiment: Experiment 2: L-1210 s.c., 10^5 cells, acid diluted with saline, female; format: in vivo, Mouse CD2 F1 (CDF1)
Description: as §9, §10
Inoculum site: Subcutaneous
Vehicle: Acid diluted with saline
as §5, §12, §6, §7, §8

[7] = test system: L-1210 Lymphoid leukemia; experiment: Experiment 3: L-1210 i.p., 10^5 cells, saline with Tween-80, male; format: in vivo, Mouse CD2 F1 (CDF1)
Description: as §9, §10, §11, §4
Treatment schedule (relative to tumor inoculation day) daily on days 1-9
as §12
Parameter: Mean survival time (MST) in days.
as §7, §8

[8] = test system: CX-1 colon xenograft; experiment: NCI screen, CX-1 colon xenograft, renal capsule (summary); format: in vivo, human tumor xenograft in athymic mice; settings: for Antitumor activity in words: CX-1 colon xenograft
Description: as §1, §2

[9] = test system: L-1210 Lymphoid leukemia; experiment: Experiment 9: L-1210 i.p., 10^5 cells, saline with Tween-80, male; format: in vivo, CD2F1 (CDF)
Description: as §10, §3, §4, §5, §12
Parameter: Mean survival time (MST) in days
as §7, §8

[10] = test system: beagle dogs; experiment: Five daily dose dog toxicity study; format: in vivo
Procedure: Preclinical toxicity studies of BIDA were completed in CD2F1 Mice, Fischer 344 rats and beagle dogs (4). The animals were injected IV with a single bolus or daily for five days.
A preclinical toxicology study of benzisoquinolinedione (NSC-308847) was done at Springborn Institute for Bioresearch, Inc. using CD2 F1 mice, Fischer 344 rats and beagle dogs. Animals were injected intravenously on a single dose (X1) or five daily dose (X5) regimen. Bulk drug was titrated with 0.5N HCl to form a salt solution of benzisoquinolinedione at a pH of 5.0-6.5. Sterile 0.9% saline was used for diluting the dosing solutions and was used for the vehicle control animals.
The following summarizes the major organ toxicities resulting from IV administration of benzisoquinolinedione to dogs.

[11] = test system: beagle dogs; settings: dog, in vivo
Description: To determine the source of the color, the following analyses were done: HPLC and TLC (for drug); routine urinalyses, orthotolidine reagent strip and sulfosalicylic acid/ammonium sulfate precipitation tests (for occult blood).

[12] = change in average tumor diameter, 4 tests, full wrapped cell: Activity not confirmed

With `CN(C)CCN1C(=O)c2cccc3cc(N)cc(c23)C1=O` [Example 9, 1H-Benz[de]isoquinoline-1,3(2H)-dione, 5-amino-2-[2-(dimethylamino)ethyl]] the “maximum increased life span” value ([1]; 8 mg/kg i.p.) was 76%, the “maximum increased life span” value ([1]; 16 mg/kg i.p.) was 77% and the “Antitumor activity in words” value ([1]; listed as BIDA) was “active”. The “Antitumor activity in words” value ([1]; listed as the compound) was “at least a reproducible minimal activity”, the “Table II evaluation” value ([1]; median survival time, 9 tests, full wrapped cell: Reproducible minimal activity) was “Reproducible minimal” and the “T/C values in the P388 leukemia pre-screen” value ([1]; test/control as percentage, listed as the compound) was 177% and 176%. The “ID50 in HeLa cells” value [2] was 2.5 µg/mL (≈ 8.82 µM), the “Antitumor activity in words” value ([3]; listed as BIDA) was “No activity was seen” and the “Antitumor activity in words” value ([3]; listed as the compound) was “not active”. The “Table II evaluation” value [3, 12] was “Activity not”, the “Median survival time (MST)” value ([4]; 4.00 mg/kg i.p.) was 22.0 days and the “Percent T/C” value ([4]; 4.00 mg/kg i.p.) was 113%. The “Median survival time (MST)” value ([4]; 8.00 mg/kg i.p.) was 23.2 days, the “Percent T/C” value ([4]; 8.00 mg/kg i.p.) was 120% and the “Median survival time (MST)” value ([4]; 16.00 mg/kg i.p.) was 27.0 days. The “Percent T/C” value ([4]; 16.00 mg/kg i.p.) was 139%, the “Median survival time (MST)” value ([4]; 32.00 mg/kg i.p.) was 6.3 days and the “Median survival time (MST)” value ([5]; 2.00 mg/kg i.p.) was 9.9 days. For the same compound, the “Percent T/C” value ([5]; 2.00 mg/kg i.p.) was 107%, the “Median survival time (MST)” value ([5]; 4.00 mg/kg i.p.) was 10.4 days and the “Percent T/C” value ([5]; 4.00 mg/kg i.p.) was 113%. For the same compound, the “Median survival time (MST)” value ([5]; 8.00 mg/kg i.p.) was 12.3 days, the “Percent T/C” value ([5]; 8.00 mg/kg i.p.) was 133% and the “Median survival time (MST)” value ([5]; 16.00 mg/kg i.p.) was 20.0 days. The “Percent T/C” value ([5]; 16.00 mg/kg i.p.) was 217%, the “Median survival time (MST)” value ([5]; 32.00 mg/kg i.p.) was 8.8 days and the “Percent T/C” value ([5]; 32.00 mg/kg i.p.) was 95%. The “Median survival time (MST)” value ([6]; 5.00 mg/kg i.p.) was 8.2 days, the “Percent T/C” value ([6]; 5.00 mg/kg i.p.) was 102% and the “Median survival time (MST)” value ([6]; 7.00 mg/kg i.p.) was 8.3 days. The “Percent T/C” value ([6]; 7.00 mg/kg i.p.) was 103%, the “Median survival time (MST)” value ([6]; 10.00 mg/kg i.p.) was 9.0 days and the “Percent T/C” value ([6]; 10.00 mg/kg i.p.) was 112%. For the same compound, the “Median survival time (MST)” value ([6]; 16.00 mg/kg i.p.) was 12.0 days, the “Percent T/C” value ([6]; 16.00 mg/kg i.p.) was 150% and the “Median survival time (MST)” value ([6]; 24.00 mg/kg i.p.) was 9.3 days. The “Percent T/C” value ([6]; 24.00 mg/kg i.p.) was 116%, the “Mean survival time (MST)” value ([7]; 1.00 mg/kg i.p.) was 7.5 days and the “Percent T/C” value ([7]; 1.00 mg/kg i.p.) was 92%. For the same compound, the “Mean survival time (MST)” value ([7]; 2.00 mg/kg i.p.) was 8.3 days, the “Percent T/C” value ([7]; 2.00 mg/kg i.p.) was 102% and the “Mean survival time (MST)” value ([7]; 4.00 mg/kg i.p.) was 8.7 days. The “Percent T/C” value ([7]; 4.00 mg/kg i.p.) was 107%, the “Mean survival time (MST)” value ([7]; 8.00 mg/kg i.p.) was 10.2 days and the “Percent T/C” value ([7]; 8.00 mg/kg i.p.) was 125%. The “Mean survival time (MST)” value ([7]; 16.00 mg/kg i.p.) was 14.2 days, the “Percent T/C” value ([7]; 16.00 mg/kg i.p.) was 175% and the “Mean survival time (MST)” value ([7]; 32.00 mg/kg i.p.) was 7.8 days. The “Percent T/C” value ([7]; 32.00 mg/kg i.p.) was 96%, the “Antitumor activity in words” value ([8]; listed as BIDA) was “No activity was seen” and the “Antitumor activity in words” value ([8]; listed as the compound) was “not active”. The “Table II evaluation” value [8, 12] was “Activity not”, the “Mean survival time (MST)” value ([9]; 1.00 mg/kg i.p.) was 9.0 days and the “Percent T/C” value ([9]; 1.00 mg/kg i.p.) was 104%. The “Mean survival time (MST)” value ([9]; 2.00 mg/kg i.p.) was 8.7 days, the “Percent T/C” value ([9]; 2.00 mg/kg i.p.) was 101% and the “Mean survival time (MST)” value ([9]; 4.00 mg/kg i.p.) was 9.3 days. The “Percent T/C” value ([9]; 4.00 mg/kg i.p.) was 108%, the “Mean survival time (MST)” value ([9]; 8.00 mg/kg i.p.) was 11.7 days and the “Percent T/C” value ([9]; 8.00 mg/kg i.p.) was 136%. For the same compound, the “Mean survival time (MST)” value ([9]; 16.00 mg/kg i.p.) was 17.0 days, the “Percent T/C” value ([9]; 16.00 mg/kg i.p.) was 197% and the “Mean survival time (MST)” value ([9]; 32.00 mg/kg i.p.) was 7.7 days. For the same compound, the “Percent T/C” value ([9]; 32.00 mg/kg i.p.) was 89%, the drug-related toxicities ([10]; 0.38 mg/kg/day) was “No drug-related toxicities were found” and the Mortality / lethality ([10]; 0.38 mg/kg/day (1/10MELD10)) was 0/4. For the same compound, the drug-related toxicities ([10]; 3.8 mg/kg/day) was “No drug-related toxicities were found”, the Mortality / lethality ([10]; 3.8 mg/kg/day (MELD10)) was 0/4 and the “gross or microscopic lesions” value ([10]; 11.4 mg/kg/day) was “No drug-related gross or microscopic lesions were found”. The Mortality / lethality ([10]; 11.4 mg/kg/day (3XMELD10), listed as BIDA) was “Neither the single injection of 2×MELD10 or the daily×5 injection of the 3×MELD10 caused lethality”, the Mortality / lethality ([10]; 11.4 mg/kg/day (3XMELD10), listed as benzisoquinolinedione) was “no deaths and 0/4” and the “leukopenia (leukocyte count)” value ([10]; 11.4 mg/kg/day, all four dogs) was 3.5-6.6 ×10^3 /cmm. For the same compound, the Nervous system signs ([10]; 11.4 mg/kg/day, days 2 and/or 3) was “Three of four dogs showed signs indicating nervous system toxicity”, the BUN ([10]; 11.4 mg/kg/day, one dog, day 8) was 27 mg/dL and the “decrease in hemoglobin, hematocrit and red blood cells below pretest values” ([10]; 11.4 mg/kg/day, two dogs, day 4 or 8) was 15-24%. The “toxicity summary, dogs” value ([10]; five daily doses i.v., listed as benzisoquinolinedione) was “reversible toxicity to the hematopoietic system, kidney and liver; also recorded: Signs indicative of pain and/or neurotoxicity; also recorded: No drug-related gross or microscopic lesions” and the blood in urine [11] was “the presence of blood was negligible”.
